The values below come from patent publication US20080234236A1, “REDUCTION OF ADVERSE EVENTS AFTER PERCUTANEOUS INTERVENTION BY USE OF A THROMBIN RECEPTOR ANTAGONIST” (priority 2007, published 2008).

The series is described as follows: Monkey bleeding liability study: forearm template bleeding time. Type of series: in vivo, cynomolgus monkeys. The note with it: for Template bleeding time: anesthetized monkeys, single oral dose (SCH 530348 1 mg/kg, ASA 10 mg/kg, clopidogrel 2 mg/kg), mean ± SEM. The protocol:
Any novel antiplatelet agent should optimally avoid incremental bleeding risk relative to the current standard of care. The bleeding risk of SCH 530348 was evaluated in anesthetized cynomoigus monkeys in which SCH 530348 was administered alone and along with aspirin and clopidogrel. Bleeding assessment was conducted following administration of single doses of SCH 530348 (1 mg/kg) and/or aspirin (10 mg/kg, ASA) and clopidogrel (2 mg/kg). Four groups of monkeys were dosed orally with either vehicle (the medium used to dissolve the drug, 0.4% methylcellulose) or drug (n=5-6/group): Group I: vehicle, Group II: SCH 530348 (1 mg/kg), Group III ASA (10 mg/kg) plus clopidogrel (2 mg/kg) and Group IV: combination of SCH 530348, ASA plus clopidogrel. Doses of various drugs used inhibited their respective platelet pathways by >90% as assessed by ex-vivo platelet aggregation in whole blood. Two hours after dosing, animals were anesthetized and bleeding risk was assessed by forearm template bleeding time and surgical blood loss from a femoral incision site.
Template bleeding time was assessed as follows. The forearm of the monkey was shaved of hair and a precision cut (5 mm long and 1 mm deep) was made on the skin with a Simplate® bleeding device (Organon Tehnika), The duration of bleeding by blotting blood onto a filter paper at the incision site was determined. When blood was no longer absorbed onto the filter paper, bleeding was considered “stopped.” The time from initiation of the cut to when bleeding stopped is defined as the template bleeding time. In these studies bleeding time was assessed on two occasions at approximately 3.5 and 4 hrs after oral dosing with the drug.

“Also recorded” adds a separate entry of the source.

As for `CCOC(=O)N[C@@H]1CC[C@@H]2[C@@H](C1)C[C@H]1C(=O)O[C@H](C)[C@H]1[C@H]2/C=C/c1ccc(-c2cccc(F)c2)cn1.O=S(=O)(O)O` [SCH 530348, ethyl [(1R,3aR,4aR,6R,8aR,9S,9aS)-9-[(E)-2-[5-(3-fluorophenyl)-2-pyridinyl]ethenyl]-dodecahydro-1-methyl-3-oxonaphtho[2,3-c]furan-6-yl] carbamate bisulfate], the Template bleeding time was 4.9 min. Also, the “Bleeding risk / prolongation of bleeding” value (SCH 530348 1 mg/kg alone or with aspirin and clopidogrel, 1 mg/kg) is listed as “no bleeding risk; also recorded: no prolongation of bleeding”. For the same molecule, the Template bleeding time (listed as Group II) is reported as 4.9 ± 0.99 min.
